One data set can be described thus: Aqueous solubility. The class given is physicochemical. The conditions noted are these: aqueous medium (not further specified); HCl salt.
The next data set addresses hERG (Homo sapiens, UniProt Q12809). The experiment in a line: hERG test. The class given is in vitro ADME. For orientation: Block of hERG is tested as a sign of cardiac risk.
For a further data set, the target named is Ala-AT (Sus scrofa, UniProt P13191). The experiment in a line: Inhibition of Ala-AT. The class given is biochemical, porcine. The note with it: up to 10 mM. On the procedure: All reagents for enzyme purification and assays were purchased from Sigma-Aldrich (St. Louis, MO, USA). […] All the enzyme assays for the inactivation, partition ratio, and dialysis experiment were recorded on a Synergy H1 hybrid multimode microplate reader (Biotek, USA) with transparent 96-well plates.
(§1) potassium phosphate at pH 7.4, 5.55 mM α-ketoglutarate, 1.11 mM NADH, 5.55 mM […], 5.55 units of malic dehydrogenase, and various concentrations of SS-1-148. […] The plate was shaken at room temperature for 1 min, and the absorbance was measured at 340 nm every 10 s for 90 min based on the conversion of NADH to NAD^+. The remaining Asp-AT activity percentage was calculated according to the corresponding concentrations. […]

The next data set has as its target T1, Asp-AT (Sus scrofa, UniProt P00503).
T1 construct: L-aspartate aminotransferase (Asp-AT) from the porcine heart; purchased Sigma-Aldrich G2751-2KU; host or cells: porcine heart
The experiment in a line: Inhibition of Asp-AT. The class given is biochemical, porcine. On the procedure: All reagents for enzyme purification and assays were purchased from Sigma-Aldrich (St. Louis, MO, USA). […] All the enzyme assays for the inactivation, partition ratio, and dialysis experiment were recorded on a Synergy H1 hybrid multimode microplate reader (Biotek, USA) with transparent 96-well plates. […]
as §1

The next data set concerns the target CYP 3A4 (Homo sapiens, UniProt P08684). Kind of data set: CYP inhibition 3A4. It counts as in vitro ADME.
Data set [1] can be described thus: Plasma protein binding, human. It counts as in vitro ADME.
For a further data set, the target named is CYP 2C19 (Homo sapiens, UniProt P33261). Kind of data set: CYP inhibition 2C19. It counts as in vitro ADME.
A short description of data set [2]: Plasma protein binding, mouse. It counts as in vitro ADME.
The next data set has as its target T2, hOAT (Homo sapiens, UniProt P04181).
T2 construct: made in house; host or cells: E. coli BL21(DE3)
T2 sequence (P04181 26-439): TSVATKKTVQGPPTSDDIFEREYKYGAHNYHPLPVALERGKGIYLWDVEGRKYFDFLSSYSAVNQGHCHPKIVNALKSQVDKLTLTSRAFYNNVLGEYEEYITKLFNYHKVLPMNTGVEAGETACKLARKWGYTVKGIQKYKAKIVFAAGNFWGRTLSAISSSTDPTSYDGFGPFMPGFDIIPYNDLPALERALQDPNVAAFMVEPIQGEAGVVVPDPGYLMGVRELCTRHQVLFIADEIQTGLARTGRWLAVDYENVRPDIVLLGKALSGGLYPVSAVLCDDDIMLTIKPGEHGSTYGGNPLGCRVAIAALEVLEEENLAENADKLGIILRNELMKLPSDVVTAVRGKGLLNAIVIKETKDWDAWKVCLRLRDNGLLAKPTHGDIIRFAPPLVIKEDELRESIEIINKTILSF
Kind of data set: Denaturing intact protein mass spectrometry of inactivated hOAT. The conditions noted are these: hOAT fully inactivated; denaturing intact LC-MS. The text has this:
The majority of hOAT remained unmodified (FIG. 5A, top) in comparison with native hOAT as a control (FIG. 5A, bottom). […] However, one would expect a higher abundance of covalently adducted enzyme under these conditions where the enzyme is fully inactivated. This finding thus supported a major non-covalent, inactivation mechansim between hOAT and SS-1-148.
Treated and unmodified purified hOAT samples were desalted ten times with Optima-grade water (Fisher) on Amicon Ultra 10 KDa molecular weight spin filters (Millipore). To chromatographically resolve protein. 0.5 μg of protein was loaded onto a 3 cm PLRP-S (Agilent) trap column using a Dionex Ultimate3000 liquid chromatography system (Thermo Fisher). The protein analyte was washed with a 10-min isocratic gradient of 10% Solvent B (95% acetonitrile/5% H2O/0.2% formic acid) and 90% Solvent A (5% acetonitrile/95% H20/0.2% formic acid). Protein was resolved on an in-house made 75 μm ID×15 cm long nanopore capillary column packed with PLRP-S resin (Agilent). […]

The text below walks through data of patent US20240174596A1 (Northwestern University, priority 2021, published 2024).

The structures appear in SMILES notation. Where a name gives a salt, the structure may show the parent alone.

T1 sequence (P00503 2-413 limits assumed): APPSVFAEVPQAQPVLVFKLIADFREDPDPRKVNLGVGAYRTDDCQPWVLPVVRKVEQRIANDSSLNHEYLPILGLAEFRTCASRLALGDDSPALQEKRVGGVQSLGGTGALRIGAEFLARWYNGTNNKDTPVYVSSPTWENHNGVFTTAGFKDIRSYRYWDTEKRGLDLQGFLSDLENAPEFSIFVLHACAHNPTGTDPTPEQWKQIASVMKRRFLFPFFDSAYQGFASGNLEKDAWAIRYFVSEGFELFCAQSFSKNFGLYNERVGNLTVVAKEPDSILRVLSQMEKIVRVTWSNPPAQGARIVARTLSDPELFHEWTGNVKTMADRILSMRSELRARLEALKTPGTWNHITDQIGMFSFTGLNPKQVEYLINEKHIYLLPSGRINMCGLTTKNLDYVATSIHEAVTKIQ
Sequence of hERG (Q12809 whole entry): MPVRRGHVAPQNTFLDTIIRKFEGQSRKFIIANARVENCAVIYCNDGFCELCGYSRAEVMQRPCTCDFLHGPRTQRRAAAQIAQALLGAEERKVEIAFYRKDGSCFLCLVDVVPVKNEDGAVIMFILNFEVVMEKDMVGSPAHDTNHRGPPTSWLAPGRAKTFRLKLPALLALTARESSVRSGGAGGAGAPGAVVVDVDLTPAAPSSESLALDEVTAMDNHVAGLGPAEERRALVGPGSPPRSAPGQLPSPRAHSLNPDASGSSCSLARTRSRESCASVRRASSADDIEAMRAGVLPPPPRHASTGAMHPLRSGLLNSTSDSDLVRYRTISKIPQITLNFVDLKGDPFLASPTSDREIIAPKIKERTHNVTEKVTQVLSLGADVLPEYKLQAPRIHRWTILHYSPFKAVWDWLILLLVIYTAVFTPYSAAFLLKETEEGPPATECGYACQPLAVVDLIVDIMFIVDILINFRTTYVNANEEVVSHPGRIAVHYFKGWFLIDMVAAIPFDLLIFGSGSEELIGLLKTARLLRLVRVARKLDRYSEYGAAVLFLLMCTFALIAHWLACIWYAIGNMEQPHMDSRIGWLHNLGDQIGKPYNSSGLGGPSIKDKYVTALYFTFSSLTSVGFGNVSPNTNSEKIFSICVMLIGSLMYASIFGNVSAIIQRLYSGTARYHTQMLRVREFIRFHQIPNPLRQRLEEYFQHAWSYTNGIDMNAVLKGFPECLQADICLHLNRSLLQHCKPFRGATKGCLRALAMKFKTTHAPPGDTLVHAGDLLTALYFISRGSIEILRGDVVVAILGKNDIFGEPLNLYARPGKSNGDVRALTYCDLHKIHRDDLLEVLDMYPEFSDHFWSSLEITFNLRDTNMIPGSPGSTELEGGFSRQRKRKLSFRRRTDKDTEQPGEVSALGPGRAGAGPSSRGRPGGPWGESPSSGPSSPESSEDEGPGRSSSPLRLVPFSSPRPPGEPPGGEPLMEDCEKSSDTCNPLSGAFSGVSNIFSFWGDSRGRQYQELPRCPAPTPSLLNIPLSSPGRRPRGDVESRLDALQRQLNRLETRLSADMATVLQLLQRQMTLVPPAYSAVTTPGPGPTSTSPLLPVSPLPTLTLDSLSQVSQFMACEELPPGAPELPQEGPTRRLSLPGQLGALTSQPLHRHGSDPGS
Sequence of Ala-AT (P13191 whole entry): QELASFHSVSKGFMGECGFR
Sequence of CYP 3A4 (P08684 whole entry): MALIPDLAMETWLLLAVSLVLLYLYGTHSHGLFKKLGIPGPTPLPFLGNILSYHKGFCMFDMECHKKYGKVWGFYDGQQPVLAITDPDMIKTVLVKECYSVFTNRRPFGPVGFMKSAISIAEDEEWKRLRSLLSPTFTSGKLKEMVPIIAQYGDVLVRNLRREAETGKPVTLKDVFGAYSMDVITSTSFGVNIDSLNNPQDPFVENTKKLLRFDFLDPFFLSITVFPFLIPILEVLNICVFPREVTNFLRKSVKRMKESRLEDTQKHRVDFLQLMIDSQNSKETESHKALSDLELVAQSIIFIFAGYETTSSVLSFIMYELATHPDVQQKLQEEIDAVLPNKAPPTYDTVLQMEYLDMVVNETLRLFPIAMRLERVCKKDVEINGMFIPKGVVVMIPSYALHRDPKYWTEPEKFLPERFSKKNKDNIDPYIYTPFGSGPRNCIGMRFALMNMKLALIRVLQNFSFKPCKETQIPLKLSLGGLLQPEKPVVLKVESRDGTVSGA
Sequence of CYP 2C19 (P33261 whole entry): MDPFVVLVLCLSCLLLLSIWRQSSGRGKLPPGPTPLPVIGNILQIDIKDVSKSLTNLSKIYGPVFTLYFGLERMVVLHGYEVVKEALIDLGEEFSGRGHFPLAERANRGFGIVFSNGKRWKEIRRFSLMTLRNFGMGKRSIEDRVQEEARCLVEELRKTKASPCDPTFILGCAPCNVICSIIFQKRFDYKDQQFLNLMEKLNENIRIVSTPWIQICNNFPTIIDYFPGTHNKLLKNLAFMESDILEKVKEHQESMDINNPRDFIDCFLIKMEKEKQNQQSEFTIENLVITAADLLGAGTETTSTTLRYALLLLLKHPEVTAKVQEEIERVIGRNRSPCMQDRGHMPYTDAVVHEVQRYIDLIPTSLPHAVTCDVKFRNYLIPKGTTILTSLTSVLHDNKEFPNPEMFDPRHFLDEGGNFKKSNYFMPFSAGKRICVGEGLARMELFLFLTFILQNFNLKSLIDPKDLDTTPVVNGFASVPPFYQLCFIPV

The solubility is the concentration that dissolves in the medium under given conditions. As usually defined, the IC50 is the point on the concentration scale where inhibition reaches its midpoint. The low end stands for inhibition by little substance, the high end for a need for much substance. As usually defined, the Ki is the equilibrium dissociation constant of an inhibitor or competing ligand from its target. Broadly, the fraction unbound is the share of the substance not bound to proteins or other matrix. A higher fraction unbound goes with much free substance. For `N[C@H]1C=C(C(=O)O)CC1(F)F` [SS-1-148, (S)-3-Amino-4,4-difluorocyclopent-1-enecarboxylic acid hydrochloric acid salt], the solubility in “Aqueous solubility” is > 50 mM. Besides, the half-maximal inhibitory concentration (IC50) on hERG was > 30 µM; on CYP 3A4 it was > 100 µM; on CYP 2C19 it was > 100 µM. The “inhibition on Ala-AT” value at Ala-AT is listed as “did not show noticeable inhibition”. Further, the Ki at Asp-AT (read-out: Off-target effects (Ki, mM) Asp-AT) is > 20 mM. Further, the “inhibition on Asp-AT” value on Asp-AT (up to 10 mM) is on record as “did not show noticeable inhibition”. For the same compound, the fraction unbound in data set [1] and in [2] was 1 throughout. Also, on hOAT, the hOAT covalently modified was ~16%.
